Assays:
hASCs [1] = experiment: Chondrogenesis of hASCs in VL-PSL constructs (RT-PCR, hydroxyproline, histology, IHC); format: cell-based, human
Procedure: (§1) The fabricated constructs were detached from the platform and washed 3 times to remove uncured polymer solution. The constructs were cultured in control medium (CM, DMEM with 1% L-alanyl-L-glutamine, 55 μM sodium pyruvate, 1× antibiotic-antimycotic, and 1% Insulin-Transferrin-Selenium (ITS)) or chondrogenic medium (CGM, CM supplemented with 10 ng/ml transforming growth factor-β3 (TGF-β3), 100 nM dexamethasone, 50 μM L-ascorbic acid 2-phosphate, and 23 μM L-proline) up to 28 days, which were designated as Control or TGF-β3 group, respectively.
Total RNA of the cells within the constructs was isolated using TRIZOL reagent and purified. Reverse transcription reactions were performed. Real-time PCR was performed with a thermocycler. All sample values were normalized to 18S rRNA using the 2^−ΔΔCt method.
Total collagen content deposited within the constructs was determined by measuring hydroxylproline levels. The constructs (5 mm diameter and 2 mm thickness) were homogenized in water by grinding and hydrolyzed using the same volume of 12N HCl at 120° C. for 3 hours. Hydroxyproline content in constructs was quantitated using a Hydroxyproline Colorimetric Assay Kit.
After 28 days culture, constructs were removed from the incubator, washed twice, and fixed in buffered paraformaldehyde (4%) for 1 day at room temperature. After washed with PBS for 3 times, they were then cryosectioned using a cryostat at 8 μm thickness. For assessment of glycosaminoglycan deposition, the slides were stained with either Alcian Blue or Safranin-O/Fast Green following standard protocols.
Enzymatic antigen retrieval was performed using chondroitinase/hyaluronidase (1 mg/ml and 5 mg/ml) at 37° C. for 30 min, and was suppressed with 1% horse serum in PBS for 45 min. After blocking endogenous peroxidase (3% H2O2 in methanol for 10 min) and nonspecific binding (1% horse serum), slices were incubated with primary antibodies against collage type II overnight at 4° C. After washing, biotinylated secondary antibodies were applied for 30 min. Staining was developed by treating samples with horseradish peroxidase (HRP)-conjugated streptavidin/NovaRED™ peroxidase substrate.

hASCs [2] = format: cell-based; conditions: 28 days
Procedure: P3 hASCs were pelleted by centrifugation and the supernatant was completely removed. The polymer solution prepared above was used to re-suspend hASCs at 4×10^6cells/ml, and then the cell-polymer solution was immediately poured into the basement plate of the PSL device for printing with different 3D models as the template.
as §1
At various time points post-fabrication, cell viability was assessed with the Live/Dead Viability/Cytotoxicity kit as examined by epifluorescence microscopy. The percentage of live cells was calculated as the number of green-staining cells divided by the total number of cells (green & red staining cells).

[3] = tested on: engineered osteochondral constructs; experiment: IL-1β treatment of engineered osteochondral constructs, MMP ELISA of medium; format: cell-based, human
Procedure: (§2) IL-1β treatment in engineered micro-osteochondral constructs. After 4 weeks of differentiation, engineered the osteochondral constructs were treated with IL-1β […], R&D) on the chondral or osseous sides only to investigate the cell/neo-tissue response to pro-inflammatory cytokines and possible communication through the osteochondral construct. The media used in this test were CM without TGF-β3 (chondral) and OM without BMP-2 (osseous) both supplemented with 5 ng/ml There were experimental groups: (1) CM/GM, (2) CM+IL1-1β/GM, (3) CM/GM+IL1-1β. The treatment lasted 7 days, with effluent medium collected and frozen at 1, 7 days for ELISA. After 7 days, the osteochondral constructs were bisected into the chondral and osseous halves and processed for gene expression analysis as described before. In addition to tissue specific gene expression, matrix metalloproteinase 1, 3, 13 were also analyzed.
Enzyme-linked immunosorbent assay (ELISA). Media was collected separately from chondral and osseous constructs, cleared of cell debris via centrifugation (1000×g), and analyzed via IL-1β (Abcam, Cambridge, Mass.), MMP-1 (R&D), MMP-3 (Abcam, Cambridge, Mass.), and MMP-13 (Abcam) ELISAs according to the manufacturers' instructions.
(§3) IL1β treatment on engineered osteochondral tissue. As described above, the microtissue bioreactor presented here, with its two separate medium flow systems and biphasic construct compartments, has the capability for targeted treatment of one (or both) tissue construct(s) with soluble factors. Osseous and chondral components were separately treated with the pro-inflammatory cytokine IL-1β (10 ng/ml) for 7 days (control conditions consisted of untreated osteochondral constructs), and the responses of each of the two components were separately analyzed. Media samples were collected from chondral and osseous components streams at day 1 and 7, and, after day 7, the osteochondral constructs were separated into osseous and chondral components, and each was separately analyzed for gene expression of catabolic genes (MMP-1, MMP-3, MMP-13) and either cartilage markers (Sox9, Col2, aggrecan) (FIG. 20) or bone markers (RUNX2, osteocalcin, BSPII) (FIG. 21). Media samples from the chondral and osseous components stream collected at days 1 and 7 were analyzed via MMP-1, MMP-3, and MMP-13 ELISAs (FIG. 22).

[4] = tested on: engineered osteochondral constructs; experiment: IL-1β treatment of engineered osteochondral constructs, real time PCR; format: cell-based, human; conditions: 10 ng/ml, 7 days
Procedure: Real time PCR. Chondral and osseous constructs were collected separately. To avoid the potential contamination, the bonded margin of each construct was cut away using a razor blade. Total RNA was extracted using Trizol (Invitrogen) following the standard protocol and purified with the RNeasy Plus mini kit (Qiagen, Hilden, Germany). SuperScript III kit (Invitrogen) was utilized with random hexamer primers to complete the reverse transcription. Real-time RT-PCR was performed using the StepOnePlus thermocycler (Applied Biosystems, Foster City, Calif.) and SYBR Green Reaction Mix (Applied Biosystems). Sox 9, Aggrecan (ACN) and collagen type II (COL2A1), RunX2, Osteocalcin (OCN), Bone sialoprotein (BSP II) expression were analyzed. Monolayers of hBMSCs cultured in GM on 2D tissue culture plastic were used as negative controls. Transcript level of 18S rRNA was used as endogenous control: […], Gene expression folder changes were calculated using the Comparative CT (ΔΔCT) method.
as §2, §3

[5] = day 28, TGF-β3 group versus control group
[6] = IL-1β treatment of osseous component
[7] = IL-1β treatment of chondral construct

Substance	Alcian Blue and Safranin O staining (GAG) (hASCs [1]; day 28, TGF-β3 group)	IHC for collagen type II (hASCs [1]; day 28, TGF-β3 group)	hydroxyproline level (hASCs [1]; day 28, TGF-β3 group) [μg/construct]	Runx2 expression (hASCs [1]; [5])	expression of Sox 9, aggrecan and collagen II (hASCs [1]; [5])	cell viability (hASCs [2]; chondrogenic medium supplemented with TGF-β3) [%]	cell proliferation by MTS assay (hASCs [2]; chondrogenic medium with TGF-β3)	osseous construct MMP secretion response ([3]; IL-1β treatment of chondral component, days 1 and 7)	chondral MMP-1, MMP-3 and MMP-13 secretion [3, 6]	chondral MMP-1 response time [3, 6] [days]	chondral MMP-13 response time [3, 6] [days]	MMPs production in the osseous construct [4, 7]	osseous construct expression of osteocalcin and BSPII [4, 7]	chondral construct expression of Sox9, Col2 and aggrecan ([4]; IL-1β treatment of chondral constructs)	chondral construct expression of MMP-1, MMP-3 and MMP-13 [4, 6]	chondral construct expression of Sox9, Col2 and aggrecan ([4]; IL-1β treatment of osseous constructs)
transforming growth factor-β3 [TGF-β3]	dense, strong staining	positive staining	21.16±7.15	higher in the control group	significantly higher	77	promoted cell proliferation	–	–	–	–	–	–	–	–	–
interleukin-1β [IL-1β]	–	–	–	–	–	–	–	quick yet increased further over time	increases	7	≤ 1	increases	decreases	decreases	increased substantially	decreased
